Patent publication US20240293551A1, “USE OF ST-TYPE LIPID COMPOUNDS IN PREPARATION OF NUCLEIC ACID DELIVERY REAGENT AND RELATED PRODUCT” (INSTITUTE OF BASIC MEDICAL SCIENCES CHINESE ACADEMY OF …, priority 2021, published 2024)

Tested on: PGY-sRNA-26
Assay: In vivo delivery study of lipid-nucleic acid mixture (oral gavage, RT-qPCR of PGY-sRNA-26 in tissues)
Design: species or system mouse
Conditions: for oral delivery of single-stranded sRNA nucleic acids into mouse intestinal tissue: intestine; for delivery efficacy over each tissue and blood tested (broad-spectrum delivery): all tissues and blood tested
Summary of the method: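 C57BL/6 male mice (~6 weeks, 20-24 g), fasted 12 h, were gavaged with 10 nmol 3′-methylated PGY-sRNA-26 mixed with 100 μg lipid (heated 90° C. 15 min), versus saline or free sRNA (n=4 each). After 12 h, blood and tissues were Trizol-extracted; sRNA quantified by stem-loop RT-qPCR relative to U6.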

[1] = C57BL/6 mice, gavage, 100 μg lipid: 10 nmol PGY-sRNA-26, 12 hours
[2] = C57BL/6 mice, gavage, 100 μg lipid: 10 nmol PGY-sRNA-26, 12 hours, brain

| SMILES | oral delivery of single-stranded sRNA nucleic acids into mouse blood [1] | oral delivery of single-stranded sRNA nucleic acids into mouse brain tissue [2] | oral delivery of single-stranded sRNA nucleic acids into mouse femur [1] | oral delivery of single-stranded sRNA nucleic acids into mouse heart tissue [1] | oral delivery of single-stranded sRNA nucleic acids into mouse intestinal tissue [1] | oral delivery of single-stranded sRNA nucleic acids into mouse liver tissue [1] | oral delivery of single-stranded sRNA nucleic acids into mouse lung tissue [1] | oral delivery of single-stranded sRNA nucleic acids into mouse spleen tissue [1] | oral delivery of single-stranded sRNA nucleic acids into mouse stomach tissue [1] | delivery efficacy over each tissue and blood tested (broad-spectrum delivery) [1] | oral delivery of single-stranded sRNA nucleic acids into mouse kidney tissue [1] | oral delivery of single-stranded sRNA nucleic acids into mouse brain tissue (mouse, in vivo, po) |
| --- | --- | --- | --- | --- | --- | --- | --- | --- | --- | --- | --- | --- |
| C[C@]12CC[C@H]3[C@@H](CCC4=CC(=O)CC[C@@H]43)[C@@H]1CC[C@@H]2O [Lipid 562] | can effectively orally deliver | can effectively orally deliver | can effectively orally deliver | can effectively orally deliver | can effectively orally deliver | can effectively orally deliver | can effectively orally deliver | can effectively orally deliver | can effectively orally deliver | – | – | – |
| CC(=O)[C@@]1(O)CC[C@H]2[C@@H]3C[C@H](C)C4=CC(=O)CC[C@]4(C)[C@H]3CC[C@@]21C [Lipid 557] | can effectively orally deliver | – | can effectively orally deliver | can effectively orally deliver | can effectively orally deliver | can effectively orally deliver | can effectively orally deliver | can effectively orally deliver | can effectively orally deliver | exhibited the best delivery efficacy | can effectively orally deliver | can effectively orally deliver |
| CCCCCCCCCCCCCCCCCC(=O)O[C@H]1CC[C@@]2(C)C(=CC[C@H]3[C@@H]4CC[C@H]([C@H](C)CCCC(C)C)[C@@]4(C)CC[C@@H]32)C1 [Lipid 584] | can effectively orally deliver | can effectively orally deliver | can effectively orally deliver | can effectively orally deliver | can effectively orally deliver | can effectively orally deliver | can effectively orally deliver | can effectively orally deliver | can effectively orally deliver | – | – | – |
| CC(=O)[C@H]1CC[C@H]2[C@@H]3CC=C4C[C@@H](O)CC[C@]4(C)[C@H]3CC[C@]12C [Lipid 590] | can effectively orally deliver | can effectively orally deliver | can effectively orally deliver | can effectively orally deliver | can effectively orally deliver | can effectively orally deliver | can effectively orally deliver | can effectively orally deliver | can effectively orally deliver | exhibited the best delivery efficacy | can effectively orally deliver | – |
| C=C1/C(=C\C=C2/CCC[C@]3(C)[C@@H]([C@H](C)/C=C/[C@H](C)C(C)(C)O)CC[C@@H]23)C[C@@H](O)C[C@@H]1O [Lipid 570] | can effectively orally deliver | can effectively orally deliver | can effectively orally deliver | can effectively orally deliver | can effectively orally deliver | can effectively orally deliver | can effectively orally deliver | can effectively orally deliver | can effectively orally deliver | exhibited the best delivery efficacy | can effectively orally deliver | – |
| C=C1/C(=C\C=C2/CCC[C@]3(C)[C@@H]([C@H](C)/C=C/[C@@H](O)C4CC4)CC[C@@H]23)C[C@@H](O)C[C@@H]1O [Lipid 554] | can effectively orally deliver | can effectively orally deliver | can effectively orally deliver | can effectively orally deliver | can effectively orally deliver | can effectively orally deliver | can effectively orally deliver | can effectively orally deliver | can effectively orally deliver | exhibited the best delivery efficacy | can effectively orally deliver | – |
| CC(=O)OCC(=O)[C@@]1(O)CC[C@H]2[C@@H]3CCC4=CC(=O)CC[C@]4(C)[C@H]3C(=O)C[C@@]21C [Lipid 585] | can effectively orally deliver | can effectively orally deliver | can effectively orally deliver | can effectively orally deliver | can effectively orally deliver | can effectively orally deliver | can effectively orally deliver | can effectively orally deliver | can effectively orally deliver | – | can effectively orally deliver | – |
| C#C[C@]1(O)CC[C@H]2[C@@H]3CCc4cc(O)ccc4[C@H]3CC[C@@]21C [Lipid 591] | – | can effectively orally deliver | can effectively orally deliver | can effectively orally deliver | can effectively orally deliver | – | can effectively orally deliver | can effectively orally deliver | can effectively orally deliver | – | can effectively orally deliver | – |
| C[C@H](CCC(=O)O)[C@H]1CC[C@H]2[C@@H]3C(=O)C[C@@H]4C[C@H](O)CC[C@]4(C)[C@H]3CC[C@]12C [Lipid 586] | can effectively orally deliver | can effectively orally deliver | can effectively orally deliver | can effectively orally deliver | can effectively orally deliver | can effectively orally deliver | – | can effectively orally deliver | can effectively orally deliver | – | can effectively orally deliver | – |
| C[C@H]1C[C@@H]2[C@H]([C@@H](O)C[C@@]3(C)[C@H]2CC[C@]3(O)C(=O)CO)[C@@]2(C)C=CC(=O)C=C12 [Lipid 547] | can effectively orally deliver | – | can effectively orally deliver | can effectively orally deliver | can effectively orally deliver | can effectively orally deliver | can effectively orally deliver | can effectively orally deliver | can effectively orally deliver | exhibited the best delivery efficacy | can effectively orally deliver | – |
